Earlier results in patent US9955683B2, “Insecticidal apparatus and methods” (priority 2012, dated 2018).

What was measured:
blowfly larvae = conditions: sheep
[1] = ruminants; excretion mainly via the feces

Compound: N#Cc1c(N)nc(NC2CC2)nc1N [Dicyclanil]
- duration of protection, blowfly control (blowfly larvae; pour-on formulation): up to 20 wk

Compound: O=C(NC(=O)c1c(F)cccc1F)Nc1ccc(Cl)cc1 [Diflubenzuron]
- duration of protection against blowfly strike (blowfly larvae; emulsifiable concentrate used as a dip or shower, preventive use): 12-14 wk

Compound: Nc1nc(N)nc(NC2CC2)n1 [cyromazine]
- duration for which control of blowfly larvae can be maintained (blowfly larvae; after a single pour-on application): up to 13 wk

Compound: Ivermectin
- fraction of unaltered molecule excreted in the urine [1]: < 2%
